Patent US20230302013A1, “METHOD OF TREATING VIRAL-INDUCED COGNITIVE D[…] TARGETING LEAKY RyR2 CHANNELS” (The Trustees of Columbia University in the City of New York, priority 2022, published 2023)
“Also recorded” adds a separate entry of the source.

Assays:
RyR2 [1] = target: T1, RyR2 (Homo sapiens, UniProt Q92736); format: biochemical; conditions: COVID-19 patient brain tissue lysates (Ctx, CB) treated ex vivo with 10 μM compound at 4° C.; FIGS. 3A and B; p<0.05 vs untreated COVID-19
T1 construct: RyR2 was immunoprecipitated from 1.5 mg of tissue lysate using an anti-RyR2 specific antibody; from tissue; host or cells: brain tissue (cortex, cerebellum) of COVID-19 patients and controls
T1 sequence (Q92736 whole entry): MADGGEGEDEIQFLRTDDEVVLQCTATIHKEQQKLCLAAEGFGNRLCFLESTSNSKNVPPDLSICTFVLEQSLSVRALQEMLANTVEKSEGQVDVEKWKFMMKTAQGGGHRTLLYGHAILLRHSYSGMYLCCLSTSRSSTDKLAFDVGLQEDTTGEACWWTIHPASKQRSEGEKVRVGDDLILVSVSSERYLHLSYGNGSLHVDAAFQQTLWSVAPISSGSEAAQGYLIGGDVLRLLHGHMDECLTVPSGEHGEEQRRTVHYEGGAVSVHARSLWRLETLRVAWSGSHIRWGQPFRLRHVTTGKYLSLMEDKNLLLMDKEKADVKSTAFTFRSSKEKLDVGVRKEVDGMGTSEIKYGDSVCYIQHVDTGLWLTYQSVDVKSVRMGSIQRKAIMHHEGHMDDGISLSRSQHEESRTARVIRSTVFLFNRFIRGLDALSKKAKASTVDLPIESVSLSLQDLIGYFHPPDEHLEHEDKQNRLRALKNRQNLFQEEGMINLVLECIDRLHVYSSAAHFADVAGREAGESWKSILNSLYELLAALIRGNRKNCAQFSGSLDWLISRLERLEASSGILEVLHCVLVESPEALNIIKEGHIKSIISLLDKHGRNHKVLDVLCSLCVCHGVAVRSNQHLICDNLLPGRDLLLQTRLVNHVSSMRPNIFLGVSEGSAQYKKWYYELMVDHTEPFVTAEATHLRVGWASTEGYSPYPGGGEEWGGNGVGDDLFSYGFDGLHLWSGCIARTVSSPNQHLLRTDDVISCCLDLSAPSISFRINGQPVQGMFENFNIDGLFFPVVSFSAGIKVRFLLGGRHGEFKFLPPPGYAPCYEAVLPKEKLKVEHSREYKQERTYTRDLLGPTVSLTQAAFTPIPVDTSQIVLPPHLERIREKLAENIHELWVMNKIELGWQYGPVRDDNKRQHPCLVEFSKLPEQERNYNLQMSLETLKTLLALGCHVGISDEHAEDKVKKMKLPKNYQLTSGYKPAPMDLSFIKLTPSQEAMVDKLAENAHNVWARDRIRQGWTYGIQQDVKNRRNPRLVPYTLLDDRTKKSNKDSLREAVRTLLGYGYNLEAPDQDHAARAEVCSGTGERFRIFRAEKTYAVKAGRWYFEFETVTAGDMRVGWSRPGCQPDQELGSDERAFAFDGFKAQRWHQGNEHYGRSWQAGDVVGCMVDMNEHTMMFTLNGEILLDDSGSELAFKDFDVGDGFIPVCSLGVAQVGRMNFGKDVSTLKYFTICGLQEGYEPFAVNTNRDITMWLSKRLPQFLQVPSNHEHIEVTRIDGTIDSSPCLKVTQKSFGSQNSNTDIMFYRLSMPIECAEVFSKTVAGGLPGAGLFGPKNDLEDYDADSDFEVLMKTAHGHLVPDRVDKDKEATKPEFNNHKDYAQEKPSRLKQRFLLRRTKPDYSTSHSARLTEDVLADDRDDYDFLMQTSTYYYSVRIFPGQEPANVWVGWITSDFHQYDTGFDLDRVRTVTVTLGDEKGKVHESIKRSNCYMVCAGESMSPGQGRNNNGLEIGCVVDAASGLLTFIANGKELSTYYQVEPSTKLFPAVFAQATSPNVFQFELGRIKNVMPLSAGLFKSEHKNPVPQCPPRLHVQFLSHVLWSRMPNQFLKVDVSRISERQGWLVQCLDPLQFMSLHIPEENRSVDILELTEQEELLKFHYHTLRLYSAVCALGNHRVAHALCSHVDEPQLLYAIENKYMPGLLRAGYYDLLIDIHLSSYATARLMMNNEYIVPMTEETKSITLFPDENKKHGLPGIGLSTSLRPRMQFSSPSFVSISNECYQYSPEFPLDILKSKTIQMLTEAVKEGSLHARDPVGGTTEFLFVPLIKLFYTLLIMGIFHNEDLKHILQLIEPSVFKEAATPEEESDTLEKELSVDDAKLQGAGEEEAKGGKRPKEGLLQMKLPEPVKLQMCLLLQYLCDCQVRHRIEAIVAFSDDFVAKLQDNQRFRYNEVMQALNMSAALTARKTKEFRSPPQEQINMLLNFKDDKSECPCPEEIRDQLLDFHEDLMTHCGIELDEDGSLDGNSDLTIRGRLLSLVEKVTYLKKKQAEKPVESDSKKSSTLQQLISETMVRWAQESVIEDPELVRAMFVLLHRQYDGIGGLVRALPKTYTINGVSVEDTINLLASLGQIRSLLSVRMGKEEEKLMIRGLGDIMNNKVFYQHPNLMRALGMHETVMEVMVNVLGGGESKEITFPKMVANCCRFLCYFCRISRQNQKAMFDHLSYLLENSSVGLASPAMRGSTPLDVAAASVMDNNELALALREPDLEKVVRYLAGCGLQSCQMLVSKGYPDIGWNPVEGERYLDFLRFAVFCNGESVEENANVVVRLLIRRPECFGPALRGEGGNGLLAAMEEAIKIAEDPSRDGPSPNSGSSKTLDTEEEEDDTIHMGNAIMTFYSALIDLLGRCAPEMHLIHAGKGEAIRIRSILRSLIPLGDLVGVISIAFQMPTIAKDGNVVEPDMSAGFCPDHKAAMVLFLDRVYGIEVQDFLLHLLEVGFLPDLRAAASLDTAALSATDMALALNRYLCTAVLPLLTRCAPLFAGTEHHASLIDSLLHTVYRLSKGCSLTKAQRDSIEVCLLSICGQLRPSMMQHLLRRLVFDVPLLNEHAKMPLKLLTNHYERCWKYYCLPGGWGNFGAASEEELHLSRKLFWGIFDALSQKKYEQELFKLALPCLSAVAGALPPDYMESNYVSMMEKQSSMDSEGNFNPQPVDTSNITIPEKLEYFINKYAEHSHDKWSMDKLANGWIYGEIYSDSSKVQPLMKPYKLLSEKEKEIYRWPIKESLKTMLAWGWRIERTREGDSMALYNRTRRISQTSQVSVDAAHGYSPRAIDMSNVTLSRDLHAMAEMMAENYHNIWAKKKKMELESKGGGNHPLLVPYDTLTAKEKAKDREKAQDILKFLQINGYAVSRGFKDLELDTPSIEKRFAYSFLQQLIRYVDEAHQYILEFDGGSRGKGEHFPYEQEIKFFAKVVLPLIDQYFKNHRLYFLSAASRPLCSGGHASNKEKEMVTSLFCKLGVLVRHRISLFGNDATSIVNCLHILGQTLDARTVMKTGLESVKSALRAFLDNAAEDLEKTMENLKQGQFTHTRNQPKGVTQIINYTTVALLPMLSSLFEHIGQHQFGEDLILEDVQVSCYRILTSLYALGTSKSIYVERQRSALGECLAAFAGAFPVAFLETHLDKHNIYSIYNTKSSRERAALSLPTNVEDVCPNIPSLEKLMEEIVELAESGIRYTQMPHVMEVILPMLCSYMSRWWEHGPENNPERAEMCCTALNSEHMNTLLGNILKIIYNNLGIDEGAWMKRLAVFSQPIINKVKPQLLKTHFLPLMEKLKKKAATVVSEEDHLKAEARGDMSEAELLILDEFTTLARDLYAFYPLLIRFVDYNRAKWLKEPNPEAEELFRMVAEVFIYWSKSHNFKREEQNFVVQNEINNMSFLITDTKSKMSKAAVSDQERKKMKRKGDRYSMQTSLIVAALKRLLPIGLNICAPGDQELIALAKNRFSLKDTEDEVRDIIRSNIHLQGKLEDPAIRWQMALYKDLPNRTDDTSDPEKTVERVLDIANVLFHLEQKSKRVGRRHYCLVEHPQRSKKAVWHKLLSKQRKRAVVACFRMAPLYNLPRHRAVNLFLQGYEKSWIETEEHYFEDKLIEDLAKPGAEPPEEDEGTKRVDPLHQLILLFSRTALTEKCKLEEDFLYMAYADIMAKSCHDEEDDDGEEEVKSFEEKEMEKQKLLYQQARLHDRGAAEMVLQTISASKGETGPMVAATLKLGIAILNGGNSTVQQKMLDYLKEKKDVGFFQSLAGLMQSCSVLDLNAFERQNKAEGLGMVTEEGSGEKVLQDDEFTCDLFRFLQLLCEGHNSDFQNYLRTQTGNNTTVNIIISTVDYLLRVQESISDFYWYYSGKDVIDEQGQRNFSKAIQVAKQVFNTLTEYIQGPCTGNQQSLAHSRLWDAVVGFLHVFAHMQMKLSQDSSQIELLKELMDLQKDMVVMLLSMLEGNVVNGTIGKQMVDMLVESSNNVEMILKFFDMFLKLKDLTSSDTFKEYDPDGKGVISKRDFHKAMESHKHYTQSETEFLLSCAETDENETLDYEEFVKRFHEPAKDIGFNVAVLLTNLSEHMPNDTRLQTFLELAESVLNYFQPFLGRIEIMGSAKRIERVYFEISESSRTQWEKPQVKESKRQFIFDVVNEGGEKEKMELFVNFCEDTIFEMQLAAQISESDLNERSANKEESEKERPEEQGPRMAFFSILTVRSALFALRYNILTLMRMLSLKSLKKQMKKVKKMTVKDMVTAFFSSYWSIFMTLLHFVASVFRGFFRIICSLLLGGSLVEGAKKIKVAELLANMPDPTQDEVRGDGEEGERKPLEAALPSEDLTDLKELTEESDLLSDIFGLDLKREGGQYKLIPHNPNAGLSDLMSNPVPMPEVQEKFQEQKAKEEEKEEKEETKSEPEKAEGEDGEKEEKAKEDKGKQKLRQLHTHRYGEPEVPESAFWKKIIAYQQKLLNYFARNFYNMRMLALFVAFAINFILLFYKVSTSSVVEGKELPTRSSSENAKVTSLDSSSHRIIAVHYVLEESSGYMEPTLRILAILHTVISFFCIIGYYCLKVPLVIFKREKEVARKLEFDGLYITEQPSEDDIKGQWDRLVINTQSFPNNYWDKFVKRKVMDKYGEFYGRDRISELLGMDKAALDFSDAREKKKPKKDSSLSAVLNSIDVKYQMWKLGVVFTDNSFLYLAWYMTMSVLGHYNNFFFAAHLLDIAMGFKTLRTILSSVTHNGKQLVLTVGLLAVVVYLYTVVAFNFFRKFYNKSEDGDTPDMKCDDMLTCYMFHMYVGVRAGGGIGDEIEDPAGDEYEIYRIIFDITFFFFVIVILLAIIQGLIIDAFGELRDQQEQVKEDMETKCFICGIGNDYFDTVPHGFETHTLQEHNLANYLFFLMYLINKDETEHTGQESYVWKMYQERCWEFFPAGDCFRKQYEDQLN
T1 sequence (P68106 whole entry partner): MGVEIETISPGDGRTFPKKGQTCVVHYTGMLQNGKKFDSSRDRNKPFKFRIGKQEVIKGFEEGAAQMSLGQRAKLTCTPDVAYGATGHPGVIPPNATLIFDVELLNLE

RyR2 [2] = target: T1, RyR2; assay: [3H]ryanodine binding to immunoprecipitated RyR2 (surrogate of channel open probability / leak); format: biochemical
Method: RyR2 was immunoprecipitated from 1.5 mg of tissue lysate using an anti-RyR2 specific antibody (25 μg) in 1.0 ml of a modified RIPA buffer overnight at 4° C. The immune complexes were incubated with protein A-Sepharose beads (Sigma) at 4° C. for 1 h, and the beads were washed three times with RIPA buffer, followed by 2 washes with ryanodine binding buffer (10 mM Tris-HCl, pH 6.8, 1 M NaCl, 1% CHAPS, 5 mg/ml phosphatidylcholine, and protease inhibitors). Immunoprecipitates were incubated in 0.2 ml of binding buffer containing 20 nM [^3H] ryanodine and either of 150 nM and 20 μm free Ca^2+ for 1 h at 37° C. Samples were diluted with 1 ml of ice-cold washing buffer (25 mm Hepes, pH 7.1, 0.25 m KCl) and filtered through Whatman GF/B membrane filters pre-soaked with 1% polyethyleneimine in washing buffer. Filters were washed three times with 5 ml of washing buffer. The radioactivity remaining on the filters is determined by liquid scintillation counting to obtain bound [^3H] ryanodine. Nonspecific binding was determined in the presence of 1000-fold excess of non-labeled ryanodine.

COc1ccc2c(c1)CN(Cc1ccc(C(=O)O)cc1)CCS2 [Compound 1]
calstabin2 binding to RyR2 (RyR2 [1]): increased | abnormal RyR2 activity ([3H]ryanodine binding) at resting Ca2+ concentration (RyR2 [2]; RyR2 immunoprecipitated from COVID-19 brain lysates, 150 nM free Ca2+, as percent of maximum binding (20 μM Ca2+), FIG. 3C, p<0.05 vs untreated COVID-19): decreased | RyR2 channel leak (RyR2 [2]; ex vivo treatment of COVID-19 patient brain samples): corrected; also recorded: fixed the channel leak
